Experimental data: PubChem BioAssay (NCI)
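How tested: cells in 96-well plates exposed to compound for 48 hours at five concentrations. Here, GI50 denotes the concentration required for 50% inhibition of growth. Definition used: TGI = concentration required for complete inhibition of growth.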

Assays:
Assay in all cases: NCI-60 cell line screen, 48 h
786-0 renal = system: 786-0 renal
A549 NSCLC = system: A549 NSCLC
BT-549 breast = system: BT-549 breast
CAKI-1 renal = system: CAKI-1 renal
CCRF-CEM leukemia = system: CCRF-CEM leukemia
COLO 205 colon = system: COLO 205 colon
DU-145 prostate = system: DU-145 prostate
EKVX NSCLC = system: EKVX NSCLC
HCC-2998 colon = system: HCC-2998 colon
HCT-116 colon = system: HCT-116 colon
HCT-15 colon = system: HCT-15 colon
HL-60(TB) leukemia = system: HL-60(TB) leukemia
HOP-62 NSCLC = system: HOP-62 NSCLC
HS 578T breast = system: HS 578T breast
HT29 colon = system: HT29 colon
IGROV1 ovarian = system: IGROV1 ovarian
K-562 leukemia = system: K-562 leukemia
KM12 colon = system: KM12 colon
LOX IMVI melanoma = system: LOX IMVI melanoma
M14 melanoma = system: M14 melanoma
MALME-3M melanoma = system: MALME-3M melanoma
MCF7 breast = system: MCF7 breast
MDA-MB-231 breast = system: MDA-MB-231 breast
MDA-MB-435 = system: MDA-MB-435
MDA-N = system: MDA-N
MOLT-4 leukemia = system: MOLT-4 leukemia
NCI-H226 lung = system: NCI-H226 lung
NCI-H23 lung = system: NCI-H23 lung
NCI/ADR-RES ovarian = system: NCI/ADR-RES ovarian
OVCAR-3 ovarian = system: OVCAR-3 ovarian
OVCAR-4 ovarian = system: OVCAR-4 ovarian
OVCAR-5 ovarian = system: OVCAR-5 ovarian
OVCAR-8 ovarian = system: OVCAR-8 ovarian
PC-3 prostate = system: PC-3 prostate
RPMI-8226 leukemia = system: RPMI-8226 leukemia
RXF 393 renal = system: RXF 393 renal
SF-268 CNS = system: SF-268 CNS
SF-295 CNS = system: SF-295 CNS
SF-539 CNS = system: SF-539 CNS
SK-MEL-28 melanoma = system: SK-MEL-28 melanoma
SK-MEL-5 melanoma = system: SK-MEL-5 melanoma
SK-OV-3 ovarian = system: SK-OV-3 ovarian
SN12C renal = system: SN12C renal
SNB-19 CNS = system: SNB-19 CNS
SNB-75 CNS = system: SNB-75 CNS
SR leukemia = system: SR leukemia
SW-620 colon = system: SW-620 colon
TK-10 renal = system: TK-10 renal
U251 CNS = system: U251 CNS
UACC-257 melanoma = system: UACC-257 melanoma
UACC-62 melanoma = system: UACC-62 melanoma
UO-31 renal = system: UO-31 renal
A498 renal = system: A498 renal
ACHN renal = system: ACHN renal
HOP-92 NSCLC = system: HOP-92 NSCLC
NCI-H460 lung = system: NCI-H460 lung
NCI-H522 lung = system: NCI-H522 lung
SK-MEL-2 melanoma = system: SK-MEL-2 melanoma
T-47D breast = system: T-47D breast

## CC1(C)CC2(C)CC1CC2O (configuration not stated)
786-0 renal
  TGI: > 100 µM
A549 NSCLC
  TGI: > 100 µM
BT-549 breast
  TGI: > 100 µM
CAKI-1 renal
  TGI: > 100 µM
CCRF-CEM leukemia
  TGI: > 100 µM
COLO 205 colon
  TGI: > 100 µM
DU-145 prostate
  TGI: > 100 µM
EKVX NSCLC
  TGI: > 100 µM
HCC-2998 colon
  TGI: > 100 µM
HCT-116 colon
  TGI: > 100 µM
HCT-15 colon
  TGI: > 100 µM
HL-60(TB) leukemia
  TGI: > 100 µM
HOP-62 NSCLC
  TGI: > 100 µM
HS 578T breast
  TGI: > 100 µM
HT29 colon
  TGI: > 100 µM
IGROV1 ovarian
  TGI: > 100 µM
K-562 leukemia
  TGI: > 100 µM
KM12 colon
  TGI: > 100 µM
LOX IMVI melanoma
  TGI: > 100 µM
M14 melanoma
  TGI: > 100 µM
MALME-3M melanoma
  TGI: > 100 µM
MCF7 breast
  TGI: > 100 µM
MDA-MB-231 breast
  TGI: > 100 µM
MDA-MB-435
  TGI: > 100 µM
MDA-N
  TGI: > 100 µM
MOLT-4 leukemia
  TGI: > 100 µM
NCI-H226 lung
  TGI: > 100 µM
NCI-H23 lung
  TGI: > 100 µM
NCI/ADR-RES ovarian
  TGI: > 100 µM
OVCAR-3 ovarian
  TGI: > 100 µM
OVCAR-4 ovarian
  TGI: > 100 µM
OVCAR-5 ovarian
  TGI: > 100 µM
OVCAR-8 ovarian
  TGI: > 100 µM
PC-3 prostate
  TGI: > 100 µM
RPMI-8226 leukemia
  TGI: > 100 µM
RXF 393 renal
  TGI: > 100 µM
SF-268 CNS
  TGI: > 100 µM
SF-295 CNS
  TGI: > 100 µM
SF-539 CNS
  TGI: > 100 µM
SK-MEL-28 melanoma
  TGI: > 100 µM
SK-MEL-5 melanoma
  TGI: > 100 µM
SK-OV-3 ovarian
  TGI: > 100 µM
SN12C renal
  TGI: > 100 µM
SNB-19 CNS
  TGI: > 100 µM
SNB-75 CNS
  TGI: > 100 µM
SR leukemia
  TGI: > 100 µM
SW-620 colon
  TGI: > 100 µM
TK-10 renal
  TGI: > 100 µM
U251 CNS
  TGI: > 100 µM
UACC-257 melanoma
  TGI: > 100 µM
UACC-62 melanoma
  TGI: > 100 µM
UO-31 renal
  TGI: > 100 µM

## Cc1ccc2c(C(C[N+](=O)[O-])c3cccs3)c(-c3ccccc3)[nH]c2c1 (configuration not stated)
786-0 renal
  GI50: 2.26 µM
  TGI: 7.89 µM
A498 renal
  GI50: 1.05 µM
  TGI: 4.34 µM
A549 NSCLC
  GI50: 2.73 µM
  TGI: 15.1 µM
ACHN renal
  GI50: 2.15 µM
  TGI: 13.3 µM
BT-549 breast
  GI50: 1.92 µM
  TGI: 7.29 µM
CAKI-1 renal
  GI50: 1.04 µM
  TGI: 5.12 µM
CCRF-CEM leukemia
  GI50: 1.38 µM
  TGI: > 33.3 µM
COLO 205 colon
  GI50: 2.46 µM
  TGI: 12.6 µM
DU-145 prostate
  GI50: 3.7 µM
  TGI: 16.9 µM
EKVX NSCLC
  GI50: 2 µM
  TGI: 14.9 µM
HCC-2998 colon
  GI50: 3.61 µM
  TGI: 8.01 µM
HCT-116 colon
  GI50: 1.31 µM
  TGI: 4.56 µM
HCT-15 colon
  GI50: 1.44 µM
  TGI: 7.46 µM
HL-60(TB) leukemia
  GI50: 1.14 µM
  TGI: 14.6 µM
HOP-62 NSCLC
  GI50: 2.25 µM
  TGI: 11.7 µM
HOP-92 NSCLC
  GI50: 4.03 µM
  TGI: 9.24 µM
HS 578T breast
  GI50: 1.57 µM
  TGI: 9.53 µM
HT29 colon
  GI50: 1.3 µM
  TGI: 6.54 µM
IGROV1 ovarian
  GI50: 1.12 µM
  TGI: 5.81 µM
K-562 leukemia
  GI50: 1.16 µM
  TGI: > 33.3 µM
KM12 colon
  GI50: 1.54 µM
  TGI: 7.25 µM
LOX IMVI melanoma
  GI50: 1.78 µM
  TGI: 6.05 µM
M14 melanoma
  GI50: 1.28 µM
  TGI: 5.57 µM
MALME-3M melanoma
  GI50: 1.55 µM
  TGI: 6.12 µM
MCF7 breast
  GI50: 1.41 µM
  TGI: 12.8 µM
MDA-MB-231 breast
  GI50: 1.65 µM
  TGI: 6.31 µM
MDA-MB-435
  GI50: 0.822 µM
  TGI: 2.14 µM
MOLT-4 leukemia
  GI50: 1.53 µM
  TGI: > 33.3 µM
NCI-H226 lung
  GI50: 3.38 µM
  TGI: 8.61 µM
NCI-H23 lung
  GI50: 1.88 µM
  TGI: 8.18 µM
NCI-H460 lung
  GI50: 1.38 µM
  TGI: 6.14 µM
NCI-H522 lung
  GI50: 1.23 µM
  TGI: 8.03 µM
NCI/ADR-RES ovarian
  GI50: 0.984 µM
  TGI: 3.68 µM
OVCAR-3 ovarian
  GI50: 1.24 µM
  TGI: 4.75 µM
OVCAR-4 ovarian
  GI50: 4.45 µM
  TGI: 13.9 µM
OVCAR-5 ovarian
  GI50: 4.07 µM
  TGI: 11.1 µM
OVCAR-8 ovarian
  GI50: 3.55 µM
  TGI: > 33.3 µM
PC-3 prostate
  GI50: 2.46 µM
  TGI: 16.1 µM
RPMI-8226 leukemia
  GI50: 2.05 µM
  TGI: 23.7 µM
RXF 393 renal
  GI50: 1.16 µM
  TGI: 4.36 µM
SF-268 CNS
  GI50: 2.77 µM
  TGI: 11.5 µM
SF-295 CNS
  GI50: 1.15 µM
  TGI: 4.54 µM
SF-539 CNS
  GI50: 1.54 µM
  TGI: 6.21 µM
SK-MEL-2 melanoma
  GI50: 2.24 µM
  TGI: 10.5 µM
SK-MEL-28 melanoma
  GI50: 2.99 µM
  TGI: 8.41 µM
SK-MEL-5 melanoma
  GI50: 1.07 µM
  TGI: 4.21 µM
SK-OV-3 ovarian
  GI50: 3.44 µM
  TGI: 19.7 µM
SN12C renal
  GI50: 1.89 µM
  TGI: 7.01 µM
SNB-19 CNS
  GI50: 1.72 µM
  TGI: 7.05 µM
SNB-75 CNS
  GI50: 0.638 µM
  TGI: 2.49 µM
SR leukemia
  GI50: 1.43 µM
  TGI: > 33.3 µM
SW-620 colon
  GI50: 1.39 µM
  TGI: 8.12 µM
T-47D breast
  GI50: 2.22 µM
  TGI: 27.4 µM
TK-10 renal
  GI50: 7.46 µM
  TGI: 18.5 µM
U251 CNS
  GI50: 1.72 µM
  TGI: 7.59 µM
UACC-257 melanoma
  GI50: 3.88 µM
  TGI: 13.7 µM
UACC-62 melanoma
  GI50: 1.4 µM
  TGI: 5.58 µM
UO-31 renal
  GI50: 2.03 µM
  TGI: 6.68 µM

## Nc1nc2ncc(SCc3ccc(C(=O)NC(CCC(=O)O)C(=O)O)cc3)cc2c(=O)[nH]1 (configuration not stated)
786-0 renal
  TGI: > 100 µM
A498 renal
  TGI: > 100 µM
A549 NSCLC
  TGI: > 100 µM
ACHN renal
  TGI: > 100 µM
BT-549 breast
  TGI: > 100 µM
CAKI-1 renal
  TGI: > 100 µM
COLO 205 colon
  TGI: > 100 µM
DU-145 prostate
  TGI: > 100 µM
EKVX NSCLC
  TGI: > 100 µM
HCC-2998 colon
  TGI: > 100 µM
HCT-116 colon
  TGI: > 100 µM
HCT-15 colon
  TGI: > 100 µM
HL-60(TB) leukemia
  TGI: > 100 µM
HOP-62 NSCLC
  TGI: > 100 µM
HOP-92 NSCLC
  TGI: > 100 µM
HS 578T breast
  TGI: > 100 µM
HT29 colon
  TGI: > 100 µM
IGROV1 ovarian
  TGI: > 100 µM
K-562 leukemia
  TGI: > 100 µM
KM12 colon
  TGI: > 100 µM
LOX IMVI melanoma
  TGI: > 100 µM
M14 melanoma
  TGI: > 100 µM
MALME-3M melanoma
  TGI: > 100 µM
MCF7 breast
  TGI: > 100 µM
MDA-MB-435
  TGI: > 100 µM
MDA-N
  TGI: > 100 µM
MOLT-4 leukemia
  TGI: > 100 µM
NCI-H226 lung
  TGI: > 100 µM
NCI-H23 lung
  TGI: > 100 µM
NCI-H460 lung
  TGI: > 100 µM
NCI-H522 lung
  TGI: > 100 µM
NCI/ADR-RES ovarian
  TGI: > 100 µM
OVCAR-3 ovarian
  TGI: > 100 µM
OVCAR-4 ovarian
  TGI: > 100 µM
OVCAR-5 ovarian
  TGI: > 100 µM
OVCAR-8 ovarian
  TGI: > 100 µM
PC-3 prostate
  TGI: > 100 µM
RPMI-8226 leukemia
  TGI: > 100 µM
SF-268 CNS
  TGI: > 100 µM
SF-295 CNS
  TGI: > 100 µM
SF-539 CNS
  TGI: > 100 µM
SK-MEL-2 melanoma
  TGI: > 100 µM
SK-MEL-28 melanoma
  TGI: > 100 µM
SK-MEL-5 melanoma
  TGI: > 100 µM
SK-OV-3 ovarian
  TGI: > 100 µM
SN12C renal
  TGI: > 100 µM
SNB-19 CNS
  TGI: > 100 µM
SR leukemia
  TGI: > 100 µM
SW-620 colon
  TGI: > 100 µM
TK-10 renal
  TGI: > 100 µM
U251 CNS
  TGI: > 100 µM
UACC-257 melanoma
  TGI: > 100 µM
UACC-62 melanoma
  TGI: > 100 µM
UO-31 renal
  TGI: > 100 µM
